{"source": "patent US20240365779A1", "about": "“POLLEN PRESERVATION COMPOSITIONS” (PowerPollen, Inc., priority 2017, published 2024)", "key": {"[1]": {"assay": "Flowability / clumping observation of pollen-substance mixtures", "type": "physicochemical", "conditions": "1:1 pollen to sugar, 4° C."}, "wheat pollen": {"system": "wheat pollen", "assay": "Wheat pollen viability by Amphasys after anther storage", "type": "cell-based", "description": "In order to determine whether the method of maintaining pollen separation was effective in other plant species, experiments were conducted with wheat. Wheat heads of Grandin wheat variety were collected at early emergence stage and post-emergence stage. At the post emergence stage, a few anthers were exposed on the wheat heads. The anthers were collected from a subsample of the heads and the collected anthers were ground with a nylon pestle in 1.5 mL of Ampha 6 media, filtered, and run through the Amphasys system to measure T0 viability. Amphasys provides a reliable determination of pollen viability using an impedance flow cytometer, which measures the electrical properties of pollen grains.\nA second subsample of the early emergence stage and post-emergence wheat heads were taken from different regions of each head. These samples were stored whole at 5° C. in cryo vials. The samples in the vials had either no storage medium, lactose particulate storage medium, or lactose (Lab grade D-lactose monohydrate, RPI #L26100-1000.0) combined with 2% Sipernat® 340 storage medium. After storage for either 3 or 14 days, pollen was extracted from the stored anthers using the nylon pestle, and viability was determined using Amphasys."}, "maize pollen [2]": {"system": "maize pollen", "assay": "Maize pollen viability by Amphasys impedance flow cytometry after storage with a substance", "type": "cell-based", "conditions": "1:1 volume pollen to sugar, 4° C.", "description": "In initial experiments considering different types separation compounds to use for pollen storage, experiments were conducted using activated charcoal as a separator. Field pollen was hand collected from various maize genotypes, and temporarily stored in 50 ml conical tubes, at 5° C. T0 Amphasys was conducted along with pollen moisture content (PMC) determination of the unmixed control pollen. Amphasys provides a reliable determination of pollen viability using an impedance flow cytometer, which measures the electrical properties of pollen grains. Viability at T0 was 97% with a PMC of 57% using the standard overnight oven method. The pollen was mixed with charcoal powder (activated charcoal) at various percentages. Activated charcoal is often used to absorb toxic substances. Mixed samples were then stored at 5° C., in uncapped 50 mL tubes. Timepoint data was collected at days 1 and 6, using Amphasys when the concentration of charcoal would allow. Small quantities of sample were suspended in Ampha 6 media and then filtered with a 150 μm filter to remove any large particles that might affect the fluidics on the Amphasys. […] Used in lower quantities, 2.5-25% in this case, viability remained as high as 92% at 6 days storage.\nIn continued efforts to test different substances for the purposes of pollen grain separation, an experiment was conducted with a series of different saccharides to determine efficacy for pollen grain separation and preservation. Mixed pollen was collected from various actively-shedding maize plants grown in the greenhouse. Hand collection was done with a funnel and screen to remove anthers. The bulk pollen sample was divided into four equal portions, each of which was approximately 5 mL in volume. Each sample of pollen was stored in a capped 50 mL conical tube at 5° C. overnight and its viability was tested using Amphasys roughly 24 hours after collection. A 1:1 volume ratio of one of three different types of sugars was added to each tube so that the amount of sugar was equal to the amount of pollen in each tube. […]"}, "rice pollen": {"system": "rice pollen", "assay": "Rice pollen viability by Amphasys after anther storage", "type": "cell-based", "description": "Another experiment was conducted to test the efficacy of maintaining separation of pollen grains in rice. Rice anthers were collected from a pool of cut back glumes. One sample of the anthers was ground with a nylon pestle in 1.5 mL of Ampha 6 media, filtered, and run through the Amphasys system to measure T0 viability. Amphasys provides a reliable determination of pollen viability using an impedance flow cytometer, which measures the electrical properties of pollen grains.\nA second subsample of the anthers was divided into three groups that were stored whole at 5° C. in cryo vials. […]. The samples in the vials had either no storage medium, lactose particulate storage medium, or chemical grade lactose combined with 2% Sipernat® 340 storage medium. After storage for either 4 days or 10 days, pollen was extracted from the stored anthers using the nylon pestle, and viability was determined using Amphasys."}, "maize pollen [3]": {"system": "maize pollen", "assay": "Germination assay of stored maize pollen (pollen tube formation)", "type": "cell-based", "conditions": "equal portion with pollen, 20 hours of storage at 4 degrees Celsius", "description": "Casein and cellulose were both tested separately as possible substances for maintaining or increasing pollen viability. […] Freshly harvested maize pollen was harvested from actively shedding tassels. The pollen was divided into two equal portions, each of which was placed into a 50 ml centrifuge tube. […] Each tube was stored for 24 hours at 4 degrees Celsius. A germination assay was conducted after 24 hours. […] Sonneborn® PD-23 mineral oil was tested as a pollen separation agent. This substance was a liquid at all stages of the described experiment. Freshly harvested pollen from a bulk of maize plants was placed into mineral oil and stored at 4 degree Celsius for a period of 20 hours. After 20 hours, germination media was applied into the oil formulation. The results supported that liquid serves as a proficient storage media for pollen. […] This further supports the concept that separation of pollen grains increases viability."}}, "note": "Entries after “also recorded” stand apart in the source; their conditions may differ.", "data": [{"compound": "OC[C@H]1O[C@@H](O[C@H]2[C@H](O)[C@@H](O)C(O)O[C@@H]2CO)[C@H](O)[C@@H](O)[C@H]1O", "note": "(some centres unmarked) [lactose]", "values": [{"measurement": "flowability of pollen in sample", "setting": "[1]", "value": "slightly clumpy"}, {"measurement": "Early Emergence Heads Viability (%)", "setting": "wheat pollen; Day 3, stored whole at 5° C.", "value": "28-41%"}, {"measurement": "Post-emergence Heads Viability (%)", "setting": "wheat pollen; Day 3, stored whole at 5° C.", "value": "27-35%"}, {"measurement": "Early Emergence Heads Viability (%)", "setting": "wheat pollen; Day 14, stored whole at 5° C.", "value": "39-44%"}, {"measurement": "Post-emergence Heads Viability (%)", "setting": "wheat pollen; Day 14, stored whole at 5° C.", "value": "6-17%"}, {"measurement": "viability", "setting": "maize pollen [2]; Day 8", "value": 77, "unit": "%"}, {"measurement": "Pollen Viability (%)", "setting": "rice pollen; Day 4, anthers stored whole at 5° C.", "value": "57-63%"}, {"measurement": "Pollen Viability (%)", "setting": "rice pollen; Day 10, anthers stored whole at 5° C.", "value": "24-27%"}]}, {"compound": "OC[C@H]1O[C@H](O[C@H]2O[C@H](CO)[C@@H](O)[C@H](O)[C@H]2O)[C@H](O)[C@@H](O)[C@@H]1O", "note": "[trehalose]", "values": [{"measurement": "viability", "setting": "maize pollen [2]; Day 2, compared to the other 3 samples", "value": "sharper decline"}, {"measurement": "viability", "setting": "maize pollen [2]; after 24 hours of storage, compared to the other samples", "value": "slight decline in viability"}]}, {"compound": "casein", "values": [{"measurement": "viability (germination assay)", "setting": "maize pollen [3]", "value": "largely, if not completely unviable; also recorded: little to no viability"}]}]}
